Measurements: patent EP0298466A2, “Substituted alkene carboxylic acid amides and derivatives” (F. HOFFMANN-LA ROCHE AG, priority 1987, dated 1989)

Key:
[1] = tested on: PAF Induced Bronchoconstriction; experiment: PAF Induced Bronchoconstriction Assay; assay type: in vivo, guinea pigs; conditions: Cavia porcellus; 1mg/Kg iv, 1 minute pretreatment, guinea pig, PAF challenge 1.0µg/kg intravenous; percent inhibition, spread = standard error of the mean
Description: Male guinea pigs (Hartley Strain, 400-500 g) were anesthetized with urethane (2 g/kg, i.p.). Each animals' trachea was cannulated and the guinea pigs were respirated using a Harvard small animal rodent respirator (3.0 cc stroke volume, 40 breaths per min.). Tracheal pressure was recorded from a cannula inserted in the trachea and connected to a Statham pressure Transducer.
The jugular vein was cannulated for administering compounds. Spontaneous breathing was arrested with succinylcholine (1.2 mg/kg, i.v.) administered 2 minutes prior to intravenous injection of platelet activating factor (PAF).
For the intravenous testing, the guinea pig is given a 5-minute pretreatment with propranolol at a dose of 0.1 mg/kg intravenously. The test compound is administered with a 1 minute pretreatment prior to intravenous challenge with PAF. The animal is then challenged with a 1.0µg/kg intravenous dose of PAF and the change in tracheal pressure is measured.
The change in tracheal pressure is determined by subtracting the steady state baseline achieved after administration of succinylcholine from the peak bronchoconstriction seen after challenge with PAF. The mean is calculated for each test compound and compared to the mean of the control animals to give the percent inhibition of bronchoconstriction. The standard error is calculated as the standard error of the mean.

PAF Binding = target: T1, PAF Binding (Canis lupus familiaris, UniProt A0A8I3NSH0); experiment: PAF binding assay (³H-PAF, dog platelets); conditions: washed dog platelets (2 x 10⁷ platelets), 10 minutes at room temperature, read-out: Inhibition of PAF Binding IC₅₀
T1 construct: from tissue; host or cells: washed platelets from dog blood
T1 sequence (A0A8I3NSH0 1-343): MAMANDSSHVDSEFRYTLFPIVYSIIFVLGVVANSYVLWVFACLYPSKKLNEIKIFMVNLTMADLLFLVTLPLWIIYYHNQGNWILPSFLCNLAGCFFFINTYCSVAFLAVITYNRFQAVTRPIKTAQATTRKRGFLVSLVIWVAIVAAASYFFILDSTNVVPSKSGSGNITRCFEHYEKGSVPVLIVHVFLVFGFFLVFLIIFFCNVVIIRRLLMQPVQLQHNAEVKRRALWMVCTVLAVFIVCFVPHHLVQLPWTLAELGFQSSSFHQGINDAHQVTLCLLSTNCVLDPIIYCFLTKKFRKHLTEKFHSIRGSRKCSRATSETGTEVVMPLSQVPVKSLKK
Description: The binding assay was done in 400 µl polyethylene microcentrifuge tubes (Beckman) containing 50 µl of an oil mixture of 2 parts of Siliconol AR200 (Serva) and 1 part of Silicone Fluid (Arthur H. Thomas). Buffer, standards, or analogs (150 µl total volume) were added to the tubes. Radiolabelled ³H-PAF (50 µl) was then added to the tubes. The reaction was started by the addition of 50 µl of dog platelets (2 x 10⁷ platelets). The tubes were capped, inverted several times to mix, and incubated for 10 minutes at room temperature. The platelets were separated from the incubation mixture by centrifuging 1 minute in a Beckman Microfuge B centrifuge. The tip of the tubes were cut off, and the platelets were washed out of the tips with 200 µl of 50% methanol (Burdick and Jackson). Aquasol (NEN, 10 ml) was added and the radioactivity in the samples was determined using an LS 8100 Beckman liquid scintillation counter linked to a Techtran tape recorder. Data was processed through an in-house computer system. Alternatively, radioactivity was determined using a Searle Mark III liquid scintillation counter linked to a Iso-Data microprocessor.
Blood was collected from anesthesized or unanesthesized dogs into 50 ml plastic centrifuge tubes containing 3.8% sodium citrate as the anticoagulant (1 volume of citrate/9 volumes of blood). The red cells were removed by centrifugation for 15 minutes at 600 rpm (100-125 g) at room temperature. An aliquot of the supernatant platelet rich plasma (PRP) was saved for cell counting and the remainder was acidified to pH 6.5 with 0.15 M citric acid. The platelet pellet was obtained after a 10 minute centrifugation at 2000 rpm (1000 g) at room temperature. Washed platelets were prepared by resuspending the platelet pellet once with PBS containing 1 mM of EDTA, centrifuging as noted, and then resuspending the platelets in 0.1% of BSA/PBS. An aliquot of the washed platelets was counted. Platelets used for binding assays were diluted to 2 x 10⁷ platelets/assay tube (4 x 10⁸ platelets/ml). Platelet counting was done using a Royco Cell-Crit 921.

[2] = target: T2, Thromboxane Synthase (TXA₂ syn.) (Homo sapiens, UniProt P24557); experiment: TXA₂ Synthesis Inhibition (microsomal fractions from human platelets); assay type: biochemical; conditions: human platelet microsomes, ¹⁴C-PGH₂ 10µM, 22° for 2 minutes; read-out: Inhibition of TXA₂ Synthetase IC₅₀
T2 construct: using microsomal fractions from human platelets as enzyme source; from tissue; host or cells: microsomal fraction of human platelets
T2 sequence (P24557 1-533): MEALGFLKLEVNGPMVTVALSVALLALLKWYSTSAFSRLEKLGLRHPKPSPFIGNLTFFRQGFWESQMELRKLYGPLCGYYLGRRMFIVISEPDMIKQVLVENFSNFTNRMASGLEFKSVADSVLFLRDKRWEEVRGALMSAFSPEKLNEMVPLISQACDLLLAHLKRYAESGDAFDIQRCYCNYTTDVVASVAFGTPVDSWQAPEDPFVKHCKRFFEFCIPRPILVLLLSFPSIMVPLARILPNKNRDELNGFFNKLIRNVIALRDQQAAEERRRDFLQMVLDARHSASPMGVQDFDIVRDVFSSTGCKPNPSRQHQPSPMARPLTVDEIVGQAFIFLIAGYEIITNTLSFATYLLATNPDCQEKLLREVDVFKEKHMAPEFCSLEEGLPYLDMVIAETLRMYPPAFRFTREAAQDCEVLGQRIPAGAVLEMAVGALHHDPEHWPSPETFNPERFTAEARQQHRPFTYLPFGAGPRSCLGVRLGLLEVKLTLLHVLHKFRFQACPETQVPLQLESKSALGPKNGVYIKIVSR
Description: Thromboxane Synthase (TXA₂ syn.) inhibitory activity is measured by following the conversion of […] using microsomal fractions from human platelets as enzyme source. In the aqueous incubation medium, the TXA₂ decomposes rapidly into TXB₂. The amount of TXA₂ syn, is adjusted so that under the conditions of the assay approximately 80-90% of the substrate, PGH₂, is converted to product in control tubes. To prepare ¹⁴C-PGH₂, ¹⁴C-AA(50-60mCi/mmole) is incubated with sheep seminal vesicular gland microsomes for 1.5 min, at 37° and then the ¹⁴C-PGH₂ is extracted with diethylether, purified on columns of Sephadex LH-20 or silicic acid, and stored in acetone at -70°C. Incubations are done as follows, Sufficient ¹⁴C-PGH₂ to yield a final substrate concentration of 10µM (about 30,000 cpm) is added to the incubation tubes and then the acetone is removed under nitrogen. The tubes are placed in an ice bath and then 215 µl of ice cold phosphate buffered saline, 10 µl of ethanol (control) or of test drug in ethanol and 25 µl of the microsomal suspension are added with mixing in that order as rapidly as possible. The tubes are incubated at 22° for 2 minutes, the reaction is stopped and then the radioactive products and the unconverted PGH₂ are extracted and analyzed by thin layer chromatography. The amount of ¹⁴C-PGH₂ converted to products is analyzed by thin layer chromatography. The amount of ¹⁴C-PGH₂ converted to products was used as a measure of TXA₂ synthase activity. Inhibitors were tested initially at a concentration of 100 µM. IC₅₀ values were calculated by linear regression analysis of successive 10 fold dilutions of the test compound concentration.

For `COc1cccc(-c2c(/C=C/C(=O)NCCCCc3cccnc3)ccc3ccc(OC)cc23)c1` [(E)-3-[7-methoxy-1-(3-methoxyphenyl)-2-naphthalenyl]-N-[4-(3-pyridinyl)butyl]-2-propenamide], the inhibition in vivo at 1 mg/kg [1] was 62% and the IC50 (PAF Binding) was 8 nM.

Work on `CCCCc1c(/C=C/C(=O)N[C@H](C)CCCc2cccnc2)ccc2ccc(OC)cc12` [[R-(E)]-3-(1-Butyl-7-methoxy-2-naphthalenyl)-N-[1-methyl-4-(3-pyridinyl)butyl]-2-propenamide] yielded an IC50 (PAF Binding) of 15 nM.

Molecule `O=C(CCCCCC=C(c1ccccc1)c1ccccc1)NCCCCc1cccnc1` [8,8-Diphenyl-N-[4-(3-pyridinyl)butyl]-7-octenamide] has an IC50 [2] of 100 to 1000 nM.

In the case of `O=C(CC=C(c1ccccc1)c1ccccc1)NCCCCc1cccnc1` [4,4-Diphenyl-N-[4-(3-pyridinyl)butyl]-3-butenamide], the IC50 [2] is reported as 1000 nM.

`CCCCCC1=C(/C=C/C(=O)N[C@H](C)CCCc2cccnc2)Cc2cc(OC)ccc21` [[R-(E)]-3-(6-methoxy-3-pentylindene-2-yl)-N-[1-methyl-4-(3-pyridinyl)butyl]-2-propenamide] showed an inhibition in vivo at 1 mg/kg [1] of 96% and an IC50 (PAF Binding) of 33 nM.

In the case of `CCCCc1c(/C=C/C(=O)N[C@H](C)CCCc2cccnc2)ccc2c(OC)cccc12` [[R-(E)]-3-(1-Butyl-5-methoxy-2-naphthalenyl)-N-[1-methyl-4-(3-pyridinyl)butyl]-2-propenamide], the inhibition in vivo at 1 mg/kg [1] is reported as 50% and the IC50 (PAF Binding) is reported as 6 nM.

In the case of `CCCCc1c(/C=C/C(=O)N[C@H](C)CCCc2cccnc2)ccc2cc(OC)ccc12` [[R-(E)]-3-(1-Butyl-6-methoxy-2-naphthalenyl)-N-[1-methyl-4-(3-pyridinyl)butyl]-2-propenamide], the inhibition in vivo at 1 mg/kg [1] is reported as 95 ± 1% and the IC50 (PAF Binding) is reported as 7 nM.

`O=C(CCC=C(c1ccccc1)c1ccccc1)NCCCCc1cccnc1` [5,5-Diphenyl-N-[4-(3-pyridinyl)butyl]-4-pentenamide] was tested, and the IC50 [2] was 100 to 1000 nM.

`O=C(CCCCCCC=C(c1ccccc1)c1ccccc1)NCCCCc1cccnc1` [9,9-Diphenyl-N-[4-(3-pyridinyl)butyl]-8-nonenamide] was tested, and the IC50 [2] was 10 to 100 nM.

`COc1ccc(C(=CCCC(=O)NCCCCc2cccnc2)c2ccc(OC)cc2)cc1` [5,5-bis(4-methoxyphenyl)-N-[4-(3-pyridinyl)butyl]-4-pentenamide] gave an IC50 [2] of 1000 to 10000 nM.

For `CCCCC1=C(/C=C/C(=O)N[C@H](C)CCCc2cccnc2)CCc2cc(OC)ccc21` [[R-(E)]-3-(1-Butyl-3,4-dihydro-6-methoxy-2-naphthalenyl)-N-[1-methyl-4-(3-pyridinyl)butyl]-2-propenamide], the inhibition in vivo at 1 mg/kg [1] was 94 ± 2%.

Molecule `O=C(CCCCC=C(c1ccccc1)c1ccccc1)NCCCCc1cccnc1` [7,7-Diphenyl-N-[4-(3-pyridinyl)butyl]-6-heptenamide] has an IC50 [2] of 100 to 10000 nM.

For `CCCCc1c(/C=C/C(=O)N[C@H](C)CCCc2cccnc2)cc(OC)c2ccc(OC)cc12` [[R-(E)]-3-(1-Butyl-4,7-dimethoxy-2-naphthalenyl)-N-[1-methyl-4-(3-pyridinyl)butyl]-2-propenamide], the inhibition in vivo at 1 mg/kg [1] was 80% and the IC50 (PAF Binding) was 3 nM.

`COc1ccc(C2=C(/C=C/C(=O)N[C@H](C)CCCc3cccnc3)CCc3cc(OC)ccc32)cc1` [[R-(E)]-3-[3,4-Dihydro-6-methoxy-1-(4-methoxyphenyl)-2-naphthalenyl]-N-[1-methyl-4-(3-pyridinyl)butyl]-2-propenamide] was tested, and the inhibition in vivo at 1 mg/kg [1] was 95 ± 2% and the IC50 (PAF Binding) was 30 nM.

With `CCCCc1c(/C=C/C(=O)N[C@H](C)CCCc2cccnc2)cc(OC)c2ccccc12` [[R-(E)]-3-(1-Butyl-4-methoxy-2-naphthalenyl)-N-[1-methyl-4-(3-pyridinyl)butyl]-2-propenamide] the inhibition in vivo at 1 mg/kg [1] was 90% and the IC50 (PAF Binding) was 1 nM.

With `O=C(C=C(c1ccccc1)c1ccccc1)NCCCCc1cccnc1` [3,3-Diphenyl-N-[4-(3-pyridinyl)butyl]-2-propenamide] the IC50 [2] was 100 to 1000 nM.

For `CCCCCc1c(/C=C/C(=O)N[C@H](C)CCCc2cccnc2)sc2cc(OC)ccc12` [[R-(E)]-3-(6-Methoxy-3-pentylbenzo-[b]thien-2-yl)-N-[1-methyl-4-(3-pyridinyl)butyl]-2-propenamide], the inhibition in vivo at 1 mg/kg [1] was 98% and the IC50 (PAF Binding) was 24 nM.

For `CCCCCc1c(/C=C/C(=O)N[C@H](C)CCCc2cccnc2)oc2cc(OC)ccc12` [[R-(E)]-3-(6-Methoxy-3-pentylbenzofuran-2-yl)-N-[1-methyl-4-(3-pyridinyl)butyl]-2-propenamide], the inhibition in vivo at 1 mg/kg [1] was 89%.

`O=C(CCCC=C(c1ccccc1)c1ccccc1)NCCCCc1cccnc1` [6,6-Diphenyl-N-[4-(3-pyridinyl)butyl]-5-hexenamide] gave an IC50 [2] of 100 nM.

With `O=C(CCC=C(c1ccc(F)cc1)c1ccc(F)cc1)NCCCCc1cccnc1` [5,5-bis(4-fluorophenyl)-N-[4-(3-pyridinyl)butyl]-4-pentenamide] the IC50 [2] was 1000 to 10000 nM.

For `COc1ccc(-c2c(/C=C/C(=O)N[C@H](C)CCCc3cccnc3)ccc3cc(OC)ccc23)cc1` [[R-(E)]-3-[6-Methoxy-1-(4-methoxyphenyl)-2-naphthalenyl]-N-[1-methyl-4-(3-pyridinyl)butyl]-2-propenamide], the inhibition in vivo at 1 mg/kg [1] was 92% and the IC50 (PAF Binding) was 55 nM.
